Experimental data: the supplement of paper PMC10307832

Legend:
Assay in all cases: relative viability (nuclei count vs DMSO), 5 days (fraction); higher = more cells survive
[1] = system: NCI-H1355
Method in brief: (§1)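 Medians of duplicate plates are given as relative viability. That measure is the nuclei count in treated wells divided by the count in vehicle wells. Counts were taken on 4× images of lung cancer cell lines in 1536-well plates, 5 days after pin-tool dosing the day after seeding with one drug alone or a fixed anchor-drug dose plus five library-drug doses (not always all listed) in √10 steps.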

[2] = system: NCI-H2085
Method in brief: as §1

[3] = system: LCLC-103H
Method in brief: as §1

[4] = system: LC-2-ad
Method in brief: as §1

[5] = system: A-427
Method in brief: as §1

[6] = system: SK-MES-1
Method in brief: as §1

[7] = system: COR-L 105
Method in brief: as §1

[8] = system: NCI-H441
Method in brief: as §1

[9] = system: COR-L23
Method in brief: as §1

[10] = system: NCI-H647
Method in brief: as §1

[11] = system: NCI-H2342
Method in brief: as §1

[12] = system: NCI-H1651
Method in brief: as §1

[13] = system: HCC-44
Method in brief: as §1

[14] = system: 201T
Method in brief: as §1

[15] = system: ChaGo-K-1
Method in brief: as §1

[16] = system: NCI-H322M
Method in brief: as §1

[17] = system: NCI-H1915
Method in brief: as §1

[18] = system: NCI-H2126
Method in brief: as §1

[19] = system: NCI-H23
Method in brief: as §1

[20] = system: NCI-H1993
Method in brief: as §1

[21] = system: H3255
Method in brief: as §1

[22] = system: NCI-H2087
Method in brief: as §1

[23] = system: NCI-H520
Method in brief: as §1

[24] = system: RERF-LC-KJ
Method in brief: as §1

[25] = system: HOP-62
Method in brief: as §1

`Nc1cccc2c1CN(C1CCC(=O)NC1=O)C2=O` (stereo not drawn) [Lenalidomide] + CC(=O)Nc1cccc(-n2c(=O)n(C3CC3)c(=O)c3c(Nc4ccc(I)cc4F)n(C)c(=O)c(C)c32)c1 [Trametinib] (partner 0.02 µM) showed a relative viability ([1]; first compound 0.253 µM) of 0.431, a relative viability ([1]; first compound 0.8 µM) of 0.316 and a relative viability ([1]; first compound 2.53 µM) of 0.402. The relative viability ([1]; first compound 8 µM) was 0.267, the relative viability ([2]; first compound 0.253 µM) was 0.507 and the relative viability ([2]; first compound 0.8 µM) was 0.405. It also gave a relative viability ([2]; first compound 2.53 µM) of 0.515, a relative viability ([2]; first compound 8 µM) of 0.464 and a relative viability ([3]; first compound 0.253 µM) of 0.687. The relative viability ([3]; first compound 0.8 µM) was 0.623, the relative viability ([3]; first compound 2.53 µM) was 0.656 and the relative viability ([3]; first compound 8 µM) was 0.617. It also gave a relative viability ([4]; first compound 0.253 µM) of 0.868, a relative viability ([4]; first compound 0.8 µM) of 0.943 and a relative viability ([4]; first compound 2.53 µM) of 0.972. The relative viability ([4]; first compound 8 µM) was 0.968, the relative viability ([5]; first compound 0.253 µM) was 0.731 and the relative viability ([5]; first compound 0.8 µM) was 0.724. It also gave a relative viability ([5]; first compound 2.53 µM) of 0.825, a relative viability ([5]; first compound 8 µM) of 0.765 and a relative viability ([6]; first compound 0.253 µM) of 0.599. For the same compound, the relative viability ([6]; first compound 0.8 µM) was 0.628, the relative viability ([6]; first compound 2.53 µM) was 0.568 and the relative viability ([6]; first compound 8 µM) was 0.578. The relative viability ([7]; first compound 0.253 µM) was 0.493, the relative viability ([7]; first compound 0.8 µM) was 0.471 and the relative viability ([7]; first compound 2.53 µM) was 0.462. It also gave a relative viability ([7]; first compound 8 µM) of 0.416, a relative viability ([8]; first compound 0.253 µM) of 0.484 and a relative viability ([8]; first compound 0.8 µM) of 0.258. It also gave a relative viability ([8]; first compound 2.53 µM) of 0.623, a relative viability ([8]; first compound 8 µM) of 0.387 and a relative viability ([9]; first compound 0.253 µM) of 0.613. It also gave a relative viability ([9]; first compound 0.8 µM) of 0.677, a relative viability ([9]; first compound 2.53 µM) of 0.678 and a relative viability ([9]; first compound 8 µM) of 0.508. The relative viability ([10]; first compound 0.253 µM) was 0.47, the relative viability ([10]; first compound 0.8 µM) was 0.413 and the relative viability ([10]; first compound 2.53 µM) was 0.691. It also gave a relative viability ([10]; first compound 8 µM) of 0.422, a relative viability ([11]; first compound 0.253 µM) of 0.796 and a relative viability ([11]; first compound 0.8 µM) of 0.894. It also gave a relative viability ([11]; first compound 2.53 µM) of 0.739, a relative viability ([11]; first compound 8 µM) of 0.692 and a relative viability ([12]; first compound 0.253 µM) of 0.79. The relative viability ([12]; first compound 0.8 µM) was 0.932, the relative viability ([12]; first compound 2.53 µM) was 0.902 and the relative viability ([12]; first compound 8 µM) was 0.82. For the same compound, the relative viability ([13]; first compound 0.253 µM) was 1.08, the relative viability ([13]; first compound 0.8 µM) was 0.829 and the relative viability ([13]; first compound 2.53 µM) was 1.11. For the same compound, the relative viability ([13]; first compound 8 µM) was 1.05, the relative viability ([14]; first compound 0.253 µM) was 0.719 and the relative viability ([14]; first compound 0.8 µM) was 0.754. For the same compound, the relative viability ([14]; first compound 2.53 µM) was 0.762, the relative viability ([14]; first compound 8 µM) was 0.713 and the relative viability ([15]; first compound 0.253 µM) was 0.925. It also gave a relative viability ([15]; first compound 0.8 µM) of 0.897, a relative viability ([15]; first compound 2.53 µM) of 1.02 and a relative viability ([15]; first compound 8 µM) of 0.904. The relative viability ([16]; first compound 0.253 µM) was 0.507, the relative viability ([16]; first compound 0.8 µM) was 0.527 and the relative viability ([16]; first compound 2.53 µM) was 0.508. It also gave a relative viability ([16]; first compound 8 µM) of 0.511, a relative viability ([17]; first compound 0.253 µM) of 0.306 and a relative viability ([17]; first compound 0.8 µM) of 0.319. For the same compound, the relative viability ([17]; first compound 2.53 µM) was 0.323, the relative viability ([17]; first compound 8 µM) was 0.283 and the relative viability ([18]; first compound 0.253 µM) was 0.572. For the same compound, the relative viability ([18]; first compound 0.8 µM) was 0.526, the relative viability ([18]; first compound 2.53 µM) was 0.597 and the relative viability ([18]; first compound 8 µM) was 0.462. The relative viability ([19]; first compound 0.253 µM) was 0.398, the relative viability ([19]; first compound 2.53 µM) was 0.426 and the relative viability ([19]; first compound 8 µM) was 0.412. For the same compound, the relative viability ([20]; first compound 0.253 µM) was 0.491, the relative viability ([20]; first compound 0.8 µM) was 0.503 and the relative viability ([20]; first compound 2.53 µM) was 0.474. For the same compound, the relative viability ([20]; first compound 8 µM) was 0.518, the relative viability ([21]; first compound 0.253 µM) was 0.547 and the relative viability ([21]; first compound 0.8 µM) was 0.624. The relative viability ([21]; first compound 2.53 µM) was 0.661, the relative viability ([21]; first compound 8 µM) was 0.541 and the relative viability ([22]; first compound 0.253 µM) was 0.191. For the same compound, the relative viability ([22]; first compound 2.53 µM) was 0.28, the relative viability ([22]; first compound 8 µM) was 0.186 and the relative viability ([23]; first compound 0.253 µM) was 0.732. The relative viability ([23]; first compound 0.8 µM) was 0.615, the relative viability ([23]; first compound 2.53 µM) was 0.835 and the relative viability ([23]; first compound 8 µM) was 0.452. The relative viability ([24]; first compound 0.253 µM) was 0.875, the relative viability ([24]; first compound 0.8 µM) was 0.886 and the relative viability ([24]; first compound 2.53 µM) was 0.915. The relative viability ([24]; first compound 8 µM) was 0.85, the relative viability ([25]; first compound 0.253 µM) was 0.34 and the relative viability ([25]; first compound 0.8 µM) was 0.338. It also gave a relative viability ([25]; first compound 2.53 µM) of 0.4 and a relative viability ([25]; first compound 8 µM) of 0.363.
